Converted amounts (≈) assume the structure as drawn.
Legend:
Strep. uberis SPU1 = test: Veterinary bacteria, MIC by two fold serial dilution in agar; conditions: Streptococcus uberis, SPU1, 18 h
Procedure: (§1) The activity of the compounds of the Examples against various organisms important in veterinary infections was determined using two fold serial dilutions in Diagnostic Sensitivity Test Agar inoculated with 10^4 organisms.

[1] = test system: M. bovigenitalium ATCC 14173; test: Anti-mycoplasmal activity, MIC in Friis broth agarose; type: cell-based; conditions: 144 h, Friis broth solidified with 0.9% agarose, 6 days incubation at 37°C, read-out: MIC
[2] = test system: Neisseria catarrhalis 1502; test: Human bacteria, MIC by serial dilution in nutrient agar; type: cell-based; conditions: nutrient agar with 5% chocolated horse blood, 18 hours at 37°C, read-out: MIC
[3] = test system: M. suipneumoniae J2206/183b; test: Anti-mycoplasmal activity, MIC in Friis broth agarose; type: cell-based; conditions: Mesomycoplasma hyopneumoniae, 144 h, Friis broth solidified with 0.9% agarose, 6 days incubation at 37°C, read-out: MIC
M. gallisepticum S6 = test: as above; type: cell-based; conditions: Mycoplasmoides gallisepticum, 144 h, Friis broth solidified with 0.9% agarose, 6 days incubation at 37°C, read-out: MIC
[4] = test system: Haemophilus influenzae Q1; test: Human bacteria, MIC by serial dilution in nutrient agar; type: cell-based; conditions: nutrient agar with 5% chocolated horse blood, 18 hours at 37°C, read-out: MIC
Bord. bronchiseptica BO9 = test: Veterinary bacteria, MIC by two fold serial dilution in agar; conditions: Bordetella bronchiseptica, BO9, 18 h
Procedure: as §1

Ps. aeruginosa 10662 = test: Human bacteria, MIC by serial dilution in nutrient agar; type: cell-based; conditions: Pseudomonas aeruginosa, nutrient agar with 5% chocolated horse blood, 18 hours at 37°C, read-out: MIC
E. coli NCTC 10418 [5] = test: as above; type: cell-based; conditions: Escherichia coli, NCTC10418; E. coli NCTC 10418 (human panel); nutrient agar with 5% chocolated horse blood; 18 hours at 37°C; read-out: MIC
M. suipneumoniae LABER = test: Anti-mycoplasmal activity, MIC in Friis broth agarose; type: cell-based; conditions: Mesomycoplasma hyopneumoniae, 144 h, Friis broth solidified with 0.9% agarose, 6 days incubation at 37°C, read-out: MIC
M. dispar NCTC 10125 = test: as above; type: cell-based; conditions: 144 h, Friis broth solidified with 0.9% agarose, 6 days incubation at 37°C, read-out: MIC
E. coli NCTC 10418 [6] = test: Veterinary bacteria, MIC by two fold serial dilution in agar; conditions: Escherichia coli, NCTC10418, 18 h
Procedure: as §1

Strep. agalactiae 2788-B = test: Human bacteria, MIC by serial dilution in nutrient agar; type: cell-based; conditions: Streptococcus agalactiae, nutrient agar with 5% chocolated horse blood, 18 hours at 37°C, read-out: MIC
[7] = test system: Strep. suis (group D) SPS11; test: Veterinary bacteria, MIC by two fold serial dilution in agar; conditions: Streptococcus suis, 18 h
Procedure: as §1

Past. multocida PA2 = test: as above; conditions: Pasteurella multocida, PA2, 18 h
Procedure: as §1

Strep. faecalis I = test: Human bacteria, MIC by serial dilution in nutrient agar; type: cell-based; conditions: Enterococcus faecalis, nutrient agar with 5% chocolated horse blood, 18 hours at 37°C, read-out: MIC
Strep. pneumoniae CN33 = test: as above; type: cell-based; conditions: Streptococcus pneumoniae, nutrient agar with 5% chocolated horse blood, 18 hours at 37°C, read-out: MIC
Staph. aureus Russell = test: as above; type: cell-based; conditions: Staphylococcus aureus, nutrient agar with 5% chocolated horse blood, 18 hours at 37°C, read-out: MIC
[8] = test system: Staph. aureus 152 (pen. sens.); test: Veterinary bacteria, MIC by two fold serial dilution in agar; conditions: Staphylococcus aureus, 18 h
Procedure: as §1

S. typhimurium S18 = test: as above; conditions: Salmonella enterica, TYPHIMURIUM, 18 h
Procedure: as §1

Strep. agalactiae SPA1 = test: as above; conditions: Streptococcus agalactiae, SPA1, 18 h
Procedure: as §1

K. aerogenes A = test: Human bacteria, MIC by serial dilution in nutrient agar; type: cell-based; conditions: Klebsiella aerogenes, nutrient agar with 5% chocolated horse blood, 18 hours at 37°C, read-out: MIC
E. coli ESS = test: as above; type: cell-based; conditions: Escherichia coli, nutrient agar with 5% chocolated horse blood, 18 hours at 37°C, read-out: MIC
M. suipneumoniae MS16 = test: Anti-mycoplasmal activity, MIC in Friis broth agarose; type: cell-based; conditions: Mesomycoplasma hyopneumoniae, 144 h, Friis broth solidified with 0.9% agarose, 6 days incubation at 37°C, read-out: MIC
M. suipneumoniae JF 435 = test: as above; type: cell-based; conditions: Mesomycoplasma hyopneumoniae, JF435, 144 h, Friis broth solidified with 0.9% agarose, 6 days incubation at 37°C, read-out: MIC
[9] = test system: Corynebacterium pyogenes CY1; test: Veterinary bacteria, MIC by two fold serial dilution in agar; conditions: CY1, 18 h
Procedure: as §1

Staph. aureus Oxford [10] = test: Human bacteria, MIC by serial dilution in nutrient agar; type: cell-based; conditions: Staphylococcus aureus; Staph. aureus Oxford (human panel); nutrient agar with 5% chocolated horse blood; 18 hours at 37°C; read-out: MIC
[11] = test system: M. suipneumoniae NCTC 10110; test: Anti-mycoplasmal activity, MIC in Friis broth agarose; type: cell-based; conditions: Mesomycoplasma hyopneumoniae, NCTC10110, 144 h, Friis broth solidified with 0.9% agarose, 6 days incubation at 37°C, read-out: MIC
Sarcina lutea 8340 = test: Human bacteria, MIC by serial dilution in nutrient agar; type: cell-based; conditions: Micrococcus luteus, nutrient agar with 5% chocolated horse blood, 18 hours at 37°C, read-out: MIC
Staph. aureus Oxford [12] = test: Veterinary bacteria, MIC by two fold serial dilution in agar; conditions: Staphylococcus aureus, 18 h
Procedure: as §1

[13] = test system: M. suipneumoniae ATCC 25095; test: Anti-mycoplasmal activity, MIC in Friis broth agarose; type: cell-based; conditions: Mesomycoplasma hyopneumoniae, ATCC25095, 144 h, Friis broth solidified with 0.9% agarose, 6 days incubation at 37°C, read-out: MIC
M. hyorhinis ATCC 25021 = test: as above; type: cell-based; conditions: Mesomycoplasma hyorhinis, ATCC25021, 144 h, Friis broth solidified with 0.9% agarose, 6 days incubation at 37°C, read-out: MIC
S. dublin S7 = test: Veterinary bacteria, MIC by two fold serial dilution in agar; conditions: Salmonella enterica, S7, 18 h
Procedure: as §1

[14] = test system: Staph. aureus B4 (pen. resistant); test: as above; conditions: Staphylococcus aureus, 18 h
Procedure: as §1

M. bovis NCTC 10131 = test: microbe, parasite or virus in culture; type: cell-based; conditions: NCTC10131, 144 h
[15] = test system: Pasteurella multocida 1633; test: Human bacteria, MIC by serial dilution in nutrient agar; type: cell-based; conditions: nutrient agar with 5% chocolated horse blood, 18 hours at 37°C, read-out: MIC
Past. multocida PA1 = test: Veterinary bacteria, MIC by two fold serial dilution in agar; conditions: Pasteurella multocida, PA1, 18 h
Procedure: as §1

## CC(=CC(=O)OCc1cccc([S+](C)[O-])c1)CC1OCC(CC2OC2C(C)C(C)O)C(O)C1O (centres unmarked) [Example 6, m-Methylsulfinylbenzyl monate A]
Strep. uberis SPU1
  MIC: 5 µg/mL (≈ 10.1 µM)
[1]
  MIC: 0.25 µg/mL (≈ 0.503 µM)
[2]
  MIC: 12.5 µg/mL (≈ 25.2 µM)
[3]
  MIC: 10 µg/mL (≈ 20.1 µM)
M. gallisepticum S6
  MIC: > 10 µg/mL
[4]
  MIC: 2.5 µg/mL (≈ 5.03 µM)
Bord. bronchiseptica BO9
  MIC: > 80 µg/mL
Ps. aeruginosa 10662
  MIC: > 100 µg/mL
E. coli NCTC 10418 [5]
  MIC: > 100 µg/mL
M. suipneumoniae LABER
  MIC: 5 µg/mL (≈ 10.1 µM)
M. dispar NCTC 10125
  MIC: 2.5 µg/mL (≈ 5.03 µM)
E. coli NCTC 10418 [6]
  MIC: > 80 µg/mL
Strep. agalactiae 2788-B
  MIC: 25 µg/mL (≈ 50.3 µM)
[7]
  MIC: > 80 µg/mL
Past. multocida PA2
  MIC: 20 µg/mL (≈ 40.3 µM)
Strep. faecalis I
  MIC: > 100 µg/mL
Strep. pneumoniae CN33
  MIC: 25 µg/mL (≈ 50.3 µM)
Staph. aureus Russell
  MIC: 12.5 µg/mL (≈ 25.2 µM)
[8]
  MIC: 5 µg/mL (≈ 10.1 µM)
S. typhimurium S18
  MIC: > 80 µg/mL
Strep. agalactiae SPA1
  MIC: 20 µg/mL (≈ 40.3 µM)
K. aerogenes A
  MIC: > 100 µg/mL
E. coli ESS
  MIC: 25 µg/mL (≈ 50.3 µM)
M. suipneumoniae MS16
  MIC: 5 µg/mL (≈ 10.1 µM)
M. suipneumoniae JF 435
  MIC: 10 µg/mL (≈ 20.1 µM)
[9]
  MIC: > 80 µg/mL
Staph. aureus Oxford [10]
  MIC: 2.5 µg/mL (≈ 5.03 µM)
[11]
  MIC: 10 µg/mL (≈ 20.1 µM)
Sarcina lutea 8340
  MIC: > 100 µg/mL
Staph. aureus Oxford [12]
  MIC: 5 µg/mL (≈ 10.1 µM)
[13]
  MIC: 5 µg/mL (≈ 10.1 µM)
M. hyorhinis ATCC 25021
  MIC: 5 µg/mL (≈ 10.1 µM)
S. dublin S7
  MIC: > 80 µg/mL
[14]
  MIC: 5 µg/mL (≈ 10.1 µM)
M. bovis NCTC 10131
  MIC: 0.25 µg/mL (≈ 0.503 µM)
[15]
  MIC: 25 µg/mL (≈ 50.3 µM)
Past. multocida PA1
  MIC: 80 µg/mL (≈ 161 µM)

## CC(=CC(=O)OCc1cccc(S(C)(=O)=O)c1)CC1OCC(CC2OC2C(C)C(C)O)C(O)C1O (centres unmarked) [Example 7, m-Methylsulfonylbenzyl monate A]
Strep. uberis SPU1
  MIC: 0.625 µg/mL (≈ 1.22 µM)
[1]
  MIC: 0.05 µg/mL (≈ 0.0975 µM)
[2]
  MIC: 1 µg/mL (≈ 1.95 µM)
[3]
  MIC: 1 µg/mL (≈ 1.95 µM)
M. gallisepticum S6
  MIC: 5 µg/mL (≈ 9.75 µM)
[4]
  MIC: 0.5 µg/mL (≈ 0.975 µM)
Bord. bronchiseptica BO9
  MIC: 20 µg/mL (≈ 39 µM)
Ps. aeruginosa 10662
  MIC: > 100 µg/mL
E. coli NCTC 10418 [5]
  MIC: > 100 µg/mL
M. suipneumoniae LABER
  MIC: 0.5 µg/mL (≈ 0.975 µM)
M. dispar NCTC 10125
  MIC: 0.25 µg/mL (≈ 0.488 µM)
E. coli NCTC 10418 [6]
  MIC: > 80 µg/mL
Strep. agalactiae 2788-B
  MIC: 5 µg/mL (≈ 9.75 µM)
[7]
  MIC: 20 µg/mL (≈ 39 µM)
Past. multocida PA2
  MIC: 1.25 µg/mL (≈ 2.44 µM)
Strep. faecalis I
  MIC: > 100 µg/mL
Strep. pneumoniae CN33
  MIC: 1 µg/mL (≈ 1.95 µM)
Staph. aureus Russell
  MIC: 5 µg/mL (≈ 9.75 µM)
[8]
  MIC: 2.5 µg/mL (≈ 4.88 µM)
S. typhimurium S18
  MIC: > 80 µg/mL
Strep. agalactiae SPA1
  MIC: 2.5 µg/mL (≈ 4.88 µM)
K. aerogenes A
  MIC: > 100 µg/mL
E. coli ESS
  MIC: 2.5 µg/mL (≈ 4.88 µM)
M. suipneumoniae MS16
  MIC: 0.5 µg/mL (≈ 0.975 µM)
M. suipneumoniae JF 435
  MIC: 1 µg/mL (≈ 1.95 µM)
[9]
  MIC: > 80 µg/mL
Staph. aureus Oxford [10]
  MIC: 2.5 µg/mL (≈ 4.88 µM)
[11]
  MIC: 1 µg/mL (≈ 1.95 µM)
Sarcina lutea 8340
  MIC: > 100 µg/mL
Staph. aureus Oxford [12]
  MIC: 2.5 µg/mL (≈ 4.88 µM)
[13]
  MIC: 0.5 µg/mL (≈ 0.975 µM)
M. hyorhinis ATCC 25021
  MIC: 0.5 µg/mL (≈ 0.975 µM)
S. dublin S7
  MIC: > 80 µg/mL
[14]
  MIC: 2.5 µg/mL (≈ 4.88 µM)
M. bovis NCTC 10131
  MIC: 0.025 µg/mL (≈ 0.0488 µM)
[15]
  MIC: 2.5 µg/mL (≈ 4.88 µM)
Past. multocida PA1
  MIC: 2.5 µg/mL (≈ 4.88 µM)
